In general, IC50 refers to the concentration that gives 50% inhibition.

Our source for the IC50 values is patent publication US20250034110A1, “LPAR1 ANTAGONISTS AND USES THEREOF” (Pipeline Therapeutics, Inc., priority 2021, published 2025).

Structures are written as SMILES. Read-outs that look alike come from different tables or passages of the source. Bounds are passed on as bounds.

The test addresses human LPAR1 (Homo sapiens, UniProt Q92633). Put plainly: In vitro functional assay of lysophosphatidic acid receptor 1 activity (calcium flux). It counts as cell-based. On the technique in general: A change in cytosolic calcium serves as a functional read-out for many receptors and channels.
The mark [1] stands for this setting: B103 cells stably expressing human LPAR1, calcium flux (Fluo-4 NW) after lysophosphatidic acid (18:1) at EC80, 100 pM to 10 μM, read-out: LPAR1 IC50.

Chain of human LPAR1 (Q92633 whole entry): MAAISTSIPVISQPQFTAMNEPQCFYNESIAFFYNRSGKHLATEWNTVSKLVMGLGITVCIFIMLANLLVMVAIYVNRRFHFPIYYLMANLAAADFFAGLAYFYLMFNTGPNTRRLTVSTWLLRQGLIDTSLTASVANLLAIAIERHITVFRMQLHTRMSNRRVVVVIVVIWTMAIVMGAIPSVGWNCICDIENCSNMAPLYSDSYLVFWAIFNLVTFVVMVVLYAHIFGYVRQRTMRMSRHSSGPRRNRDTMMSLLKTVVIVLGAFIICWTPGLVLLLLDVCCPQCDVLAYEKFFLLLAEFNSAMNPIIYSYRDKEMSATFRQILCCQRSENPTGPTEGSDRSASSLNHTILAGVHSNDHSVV

For the compound `COc1ccc(NC(=O)N(c2ccccc2C(C)C)[C@H]2C[C@@H](C(=O)O)C2)c(OC(F)F)n1` [Example 152], the IC50 under setting [1] was in the range of 100 to 1000 nM.

Consider `COc1ccc(NC(=O)N(c2ccccc2C(C)C)C2CCN(C(=O)CC#N)CC2)c(OC(F)F)n1` [Example 85, 1-(1-(2-cyanoacetyl)piperidin-4-yl)-3-(2-(difluoromethoxy)-6-methoxypyridin-3-yl)-1-(2-isopropylphenyl)urea], for which, where the note is “LPAR1 IC50”, the half-inhibitory concentration (IC50) lay in the range of 10 to 100 nM.

Regarding `Cc1ccc(NC(=O)N(c2ccccc2C(C)C)[C@H]2C[C@@H](C#N)C2)c(OC(F)F)n1` [Example 26, 1-((1s,3s)-3-cyanocyclobutyl)-3-(2-(difluoromethoxy)-6-methylpyridin-3-yl)-1-(2-isopropylphenyl)urea], the IC50 under setting [1] fell in the range of 100 to 1000 nM.

As for `CCOc1ccc(NC(=O)N(c2ccccc2C(C)C)C2CCN(C(C)=O)CC2)c(OC(F)F)n1` [Example 107], the IC50 (LPAR1 IC50) lay within 10 to 100 nM.

As for `Cc1ccc(NC(=O)N(c2ccccc2C(C)C)C2CCOCC2)c(OC(F)F)n1` [Example 18, 3-(2-(difluoromethoxy)-6-methylpyridin-3-yl)-1-(2-isopropylphenyl)-1-(tetrahydro-2H-pyran-4-yl)urea], under setting [1], the half-maximal inhibitory concentration (IC50) lay in the range of 10 to 100 nM.

Consider `COc1ccc(NC(=O)N(c2ccccc2C(C)C)[C@H]2C[C@](O)(C(F)(F)C(=O)O)C2)c(OC(F)F)n1` [Example 324], for which the IC50 under setting [1] was below 10 nM.

For `Cc1ccc(NC(=O)N(c2ccccc2C(C)C)[C@@H]2CCOC2)c(OC(F)F)n1` [Example 16, (R)-3-(2-(difluoromethoxy)-6-methylpyridin-3-yl)-1-(2-isopropylphenyl)-1-(tetrahydrofuran-3-yl)urea], the IC50 under setting [1] is 10 to 100 nM.

As to `COc1ccc(NC(=O)N(c2ccccc2C(C)C)[C@@H]2C[C@H]3CC[C@@H](C2)N3C(C)=O)c(OC(F)F)n1` [Example 54, 1-((1R,3s,5S)-8-acetyl-8-azabicyclo[3.2.1]octan-3-yl)-3-(2-(difluoromethoxy)-6-methoxypyridin-3-yl)-1-(2-isopropylphenyl)urea], the IC50 (LPAR1 IC50) was 10 to 100 nM.

Regarding `COc1ccc(NC(=O)N(c2ccccc2C(C)C)C2C3CC2CN(C(C)=O)C3)c(OC(F)F)n1` (stereo not drawn) [Example 53, 1-(3-acetyl-3-azabicyclo[3.1.1]heptan-6-yl)-3-(2-(difluoromethoxy)-6-methoxypyridin-3-yl)-1-(2-isopropylphenyl)urea], the IC50 (LPAR1 IC50) is 100 to 1000 nM.

For the compound `CC(=O)N1CC(N(C(=O)Nc2ccc(C)nc2OC(F)F)c2ccccc2C(C)C)C1` [Example 67, 1-(1-acetylazetidin-3-yl)-3-(2-(difluoromethoxy)-6-methylpyridin-3-yl)-1-(2-isopropylphenyl)urea], the half-maximal inhibitory concentration (IC50) under setting [1] is 10 to 100 nM.

On to `COc1ccc(NC(=O)N(c2ccccc2C(C)C)C2CCN(C(C)=O)CC2)c(OCC(F)F)n1` [Example 106], for which the IC50 (LPAR1 IC50) was in the range of 10 to 100 nM.

As for `COc1ccc(NC(=O)N(c2ccccc2C(C)C)C2CCCN(C)C2=O)c(OC(F)F)n1` (stereo not drawn) [Example 45, 3-(2-(difluoromethoxy)-6-methoxypyridin-3-yl)-1-(2-isopropylphenyl)-1-(1-methyl-2-oxopiperidin-3-yl)urea], the IC50 under setting [1] was in the range of 100 to 1000 nM.

For `COc1ccc(NC(=O)N(c2ccccc2C(C)C)C2CC3CC2CN3C(C)=O)c(OC(F)F)n1` (stereo not drawn) [Example 57, 1-(2-acetyl-2-azabicyclo[2.2.1]heptan-5-yl)-3-(2-(difluoromethoxy)-6-methoxypyridin-3-yl)-1-(2-isopropylphenyl)urea], the IC50 (LPAR1 IC50) lay in the range of 100 to 1000 nM.

On to `COc1cc(C(F)F)ncc1NC(=O)N(c1ccccc1C(C)C)[C@H]1CC[C@H](C(=O)O)CC1` [Example 294, (1r,4r)-4-(3-(6-(difluoromethyl)-4-methoxypyridin-3-yl)-1-(2-isopropylphenyl)ureido)cyclohexane-1-carboxylic acid], for which the IC50 under setting [1] lay in the range of 100 to 1000 nM.

For `C=C(C)c1ccccc1N(C(=O)Nc1ccc(C)nc1OC(F)F)C1CCN(C(C)=O)CC1` [Example 29, 1-(1-acetylpiperidin-4-yl)-3-(2-(difluoromethoxy)-6-methylpyridin-3-yl)-1-(2-(prop-1-en-2-yl)phenyl)urea], where the note is “LPAR1 IC50”, the IC50 was 10 to 100 nM.

Turning to `Cc1ccc(NC(=O)N(c2ccccc2C(C)C)C2CC2)c(OC(F)F)n1` [Example 13, 1-cyclopropyl-3-(2-(difluoromethoxy)-6-methylpyridin-3-yl)-1-(2-isopropylphenyl)urea], the IC50 under setting [1] is above 1000 nM.

Consider `Cc1ccc(NC(=O)N(c2ccccc2C(C)C)[C@@H]2CCC[C@H](C(=O)O)C2)c(OC(F)F)n1` [Example 287], for which the IC50 under setting [1] is 100 to 1000 nM.

On to `Cc1ccc(NC(=O)N(c2ccccc2C(C)C)[C@H]2CC[C@H](C(=O)O)CC2)c(OCCF)n1` [Example 338, (1r,4r)-4-(3-(2-(2-fluoroethoxy)-6-methylpyridin-3-yl)-1-(2-isopropylphenyl)ureido)cyclohexane-1-carboxylic acid], for which, under setting [1], the IC50 was 10 to 100 nM.

For `COc1ccc(NC(=O)N(c2ccccc2C(C)(C)F)[C@H]2CC[C@H](C(=O)O)CC2)c(OC(F)F)n1` [Example 278, (1r,4r)-4-(3-(2-(difluoromethoxy)-6-methoxypyridin-3-yl)-1-(2-(2-fluoropropan-2-yl)phenyl)ureido)cyclohexane-1-carboxylic acid], the IC50 under setting [1] was in the range of 10 to 100 nM.

`COc1cc(Br)c(F)cc1NC(=O)N(c1ccccc1C(C)C)[C@H]1CC[C@H](C(=O)O)CC1` [Example 299, (1r,4r)-4-(3-(4-bromo-5-fluoro-2-methoxyphenyl)-1-(2-isopropylphenyl)ureido)cyclohexane-1-carboxylic acid]: under setting [1], the IC50 is below 10 nM.

Consider `Cc1ccc(NC(=O)N(c2ccccc2C(C)C)C2CN(C3COC3)C2)c(OC(F)F)n1` [Example 22, 3-(2-(difluoromethoxy)-6-methylpyridin-3-yl)-1-(2-isopropylphenyl)-1-(1-(oxetan-3-yl)azetidin-3-yl)urea], for which the IC50 under setting [1] is 100 to 1000 nM.

As for `Cc1ccc(NC(=O)N(c2ccccc2C(C)C)C2CCC(F)(F)CC2)c(OC(F)F)n1` [Example 237, 1-(4,4-difluorocyclohexyl)-3-(2-(difluoromethoxy)-6-methylpyridin-3-yl)-1-(2-isopropylphenyl)urea], under setting [1], the IC50 is 100 to 1000 nM.

As for `COc1ccc(NC(=O)N(c2ccccc2C(C)C)C2CN(C(C)=O)C2)c(OC)n1` [Example 118], under setting [1], the IC50 is 100 to 1000 nM.

As for `COc1ccc(NC(=O)N(c2ccccc2C(C)C)[C@H]2CCN(C3COC3)C2)c(OC(F)F)n1` [Example 38, (S)-3-(2-(difluoromethoxy)-6-methoxypyridin-3-yl)-1-(2-isopropylphenyl)-1-(1-(oxetan-3-yl)pyrrolidin-3-yl)urea], the IC50 under setting [1] lay within 100 to 1000 nM.

Consider `COC(=O)CC1CC(N(C(=O)Nc2ccc(C)nc2OC(F)F)c2ccccc2C(C)C)C1` (stereo not drawn) [Example 159, methyl 2-(3-(3-(2-(difluoromethoxy)-6-methylpyridin-3-yl)-1-(2-isopropylphenyl)ureido)cyclobutyl)acetate], for which the IC50 under setting [1] was 100 to 1000 nM.

For `COc1ccc(NC(=O)N(c2ccccc2C(C)C)C2CCN(C(N)=O)CC2)c(OC(F)F)n1` [Example 65, 4-(3-(2-(difluoromethoxy)-6-methoxypyridin-3-yl)-1-(2-isopropylphenyl)ureido)piperidine-1-carboxamide], the IC50 (LPAR1 IC50) was 10 to 100 nM.

As to `COc1cc(F)c(Cl)cc1NC(=O)N(c1ccccc1C(C)C)[C@H]1CC[C@H](C(=O)O)CC1` [Example 300, (1r,4r)-4-(3-(5-chloro-4-fluoro-2-methoxyphenyl)-1-(2-isopropylphenyl)ureido)cyclohexane-1-carboxylic acid], the concentration for half-maximal inhibition (IC50) under setting [1] was in the range of 100 to 1000 nM.

For the compound `CC(=O)N1CCC(N(C(=O)Nc2ccc(C)nc2OC(F)F)c2ccccc2C(F)F)CC1` [Example 34, 1-(1-acetylpiperidin-4-yl)-3-(2-(difluoromethoxy)-6-methylpyridin-3-yl)-1-(2-(difluoromethyl)phenyl)urea], the IC50 (LPAR1 IC50) is above 1000 nM.

For `Cc1ccc(NC(=O)N(C[C@@H]2C[C@H]2C(=O)O)c2ccccc2C(C)C)c(OC(F)F)n1` (racemic) [Example 228], under setting [1], the IC50 lay within 100 to 1000 nM.

As for `Cc1ccc(NC(=O)N(c2ccccc2C(C)C)[C@H]2CCN(C(=O)Cn3nccn3)C2)c(OC(F)F)n1` [Example 83, (S)-1-(1-(2-(2H-1,2,3-triazol-2-yl)acetyl)pyrrolidin-3-yl)-3-(2-(difluoromethoxy)-6-methylpyridin-3-yl)-1-(2-isopropylphenyl)urea], under setting [1], the IC50 was 100 to 1000 nM.

On to `CC(C)Oc1ccc(NC(=O)N(c2ccccc2C(C)C)[C@H]2CC[C@H](C(=O)O)CC2)c(OCC(F)F)n1` [Example 259, (1r,4r)-4-(3-(2-(2,2-difluoroethoxy)-6-isopropoxypyridin-3-yl)-1-(2-isopropylphenyl)ureido)cyclohexane-1-carboxylic acid], for which the IC50 under setting [1] is 10 to 100 nM.

Regarding `CC(=O)N1CCC(N(C(=O)Nc2cccnc2OC(F)F)c2ccccc2C(C)C)CC1` [Example 91], the concentration for half-maximal inhibition (IC50) (LPAR1 IC50) is 10 to 100 nM.

As for `Cc1ccc(NC(=O)N(c2ccccc2C(C)C)[C@H]2CCOC2)c(OC(F)F)n1` [Example 17, (S)-3-(2-(difluoromethoxy)-6-methylpyridin-3-yl)-1-(2-isopropylphenyl)-1-(tetrahydrofuran-3-yl)urea], the IC50 under setting [1] lay within 10 to 100 nM.

For `Cc1ccc(NC(=O)N(c2ccccc2C(C)C)C2CC(C=O)C2)c(OC(F)F)n1` (stereo not drawn) [Example 194, 3-(2-(difluoromethoxy)-6-methylpyridin-3-yl)-1-(3-formylcyclobutyl)-1-(2-isopropylphenyl)urea], the IC50 under setting [1] fell in the range of 100 to 1000 nM.

In the case of `COc1ccc(NC(=O)N(c2ccccc2C(C)C)[C@H]2CC[C@H](C(=O)O)CC2)c(OC)n1` [Example 288, (1r,4r)-4-(3-(2,6-dimethoxypyridin-3-yl)-1-(2-isopropylphenyl)ureido)cyclohexane-1-carboxylic acid], the IC50 under setting [1] fell in the range of 10 to 100 nM.

Take `COc1ccc(NC(=O)N(c2ccccc2C(C)CO)[C@H]2CC[C@H](C(=O)O)CC2)c(OC(F)F)n1` (stereo partly drawn) [Example 282, (1r,4r)-4-(3-(2-(difluoromethoxy)-6-methoxypyridin-3-yl)-l-(2-(1-hydroxypropan-2-yl)phenyl)ureido)cyclohexane-1-carboxylic acid]: under setting [1], the IC50 lay within 100 to 1000 nM.
